Reference: patent US20200054649A1, “SKELETAL MUSCLE HYPERTROPHY INDUCERS” (CYTOO, priority 2016, published 2020)
Like-named read-outs stand apart in the source and are kept apart here.

Key:
[1] = tested on: Human primary myoblasts (HSMM) from healthy Donor 3, myotubes; test: MyoScreen hypertrophy assay on human primary myoblasts/myotubes, healthy Donor 3; format: cell-based; settings: for activity at 10 µM / EC50: Homo sapiens
Procedure: (§1) Healthy donor primary skeletal cells (Donor 1 and Donor 3) were Clonetics™ Human Skeletal Muscle Myoblasts (HSMM).
(§2) Hypertrophy and Atrophy Rescue assays were performed using an in vitro fully automated human myotube model called MyoScreen (Cytoo, France). This model relies on a tight control of the microenvironment that guides the differentiation of human primary myoblasts. Myotubes formed on MyoScreen™ micropatterns present a high level of maturation together with a highly standardized morphology.
(§3) Human primary myoblasts from donors 1, 3 and Z were seeded in MyoScreen™ micropatterned 96-well plates (Cytoo, France), let them adhere for 24 h in growth medium, then run the differentiation in a low horse serum medium for at least 5 days.
(§4) At Day0, MyoScreen™ plates (Cytoo, France) containing micropatterns were pre-filled with 200 μl/well of growth medium and stored in the incubator at 37° C. Human primary myoblasts were detached from the flasks, count, and seeded into the plates with 15 000 cells per well in 100 μl of growth medium.
(§5) At Day 1, the growth medium was changed for a differentiation medium, 300 μl/well (DMEM with 0.1% horse serum) in which myoblasts started differentiating and forming myotubes.
(§6) At Day 2, the differentiation medium was changed. Then candidate compounds were diluted with differentiation medium and transferred into the plate. The final concentration of DMSO should be not higher than 0.1%. At least 6 wells were treated with the vehicle as a basal control, and 6 wells were treated with IGF-1 at 100 ng/ml as positive hypertrophy control.
(§7) At Day 6, cells were fixed with formalin 5% for 30 min at room temperature, then permeabilized with Triton X-100 at 0.1% in PBS for 15 min, and blocked with PBS+BSA 1% for 20 minutes. Myotubes were incubated with first antibody against Troponin T in blocking buffer for 1 h30, washed three times with PBS, incubated with secondary antibody and Hoescht (1/10 000) for 1 h30, and washed three times with PBS.
(§8) Images were acquired at 10× magnification with an Operetta High Content Imaging System. Image processing and analysis were performed with dedicated algorithms developed on the Acapella High Content Imaging Software (Perkin Elmer) by CYTOO. Eleven fields per well were acquired.
(§9) First, segmentation of myotubes and nuclei were done using respectively the Troponin T staining intensity and the Hoechst staining. One to two myotubes per micropattern were usually identified (a myotube is a troponin T staining area that includes at least 2 nuclei). The threshold of segmentation was set-up in order to avoid detecting the background noise and eliminate aberrant small myotube structures. At the end of this first step, specific readouts were calculated in the whole well, like the nuclei count and the fusion index (percentage of nuclei included in troponin T staining). Usually around 50 to 60 myotubes were detected per well in a control condition.
(§10) Then, an image clean-up step was performed on the Troponin T images in order to remove myotubes that touch the border of the image. The final valid myotubes were used to extract myotube morphology parameters including the myotube width and area, and the number of nuclei per myotube.
(§11) Nuclei Count, Fusion Index, Mean myotube Area and Number of nuclei per myotube have been validated as relevant and sensitive readouts of myotube differentiation as well as atrophic and hypertrophic induction.
A primary screening was run to identify hypertrophy compounds that increase the myotube differentiation and size. Candidate compounds were tested at 10 μM in monoplicate on Donor 3 cells.
A retest was run, by cherry picking (same compound batch as primary screening): each hit was tested in the same conditions as in the Primary Screening (Donor 3, 10 μM) in six well replicates.
Dose response assays were performed on three donors (Healthy Donors 3 and 1, DMD Donor Z): 8 doses of candidate compounds between 33 μM and 0.015 μM, 2 well replicates per dose. […]

[2] = tested on: Myotubes from the healthy donor 3 atrophied with IL-1β, TNF-α or Myostatin; test: MyoScreen atrophy rescue assay (IL-1β, TNF-α, myostatin as atrophy inducers); format: cell-based, human; design: key: +++: total rescue; ++: partial rescue; +: low rescue; settings: nestorone 1 μM, corticosterone 3 μM, mifepristone 1 μM; for atrophy rescue, TNF-alpha: atrophy inducer TNF-α 2 ng/mL; for atrophy rescue, Myostatin: atrophy inducer myostatin 150 ng/mL
Procedure: as §2, §3, §4, §5, §6
For Atrophy Rescue assay, one hour after candidate compound addition, atrophy inducers were added at the following final concentration: 150 ng/mL of myostatin, 25 ng/mL of […] and 2 ng/mL of TNF-α.
as §7, §8, §9, §10, §11
Atrophy Rescue assays were performed in the presence of atrophy inducers, i.e. TNF-α, IL-1β and Myostatin. Each compound was tested in triplicate of wells at 1 μM for nestorone, 3 μM for corticostestrone and 1 μM for mifepristone.
Myotubes from the healthy donor 3 were atrophied using different inducers: inflammation cytokines IL-1β and TNF-α and SMAD pathway activator Myostatin. The ability of each compound to block the atrophy induced by these different atrophy inducers was determined.

[3] = tested on: Myotubes from the healthy donor 3 atrophied with IL-1β, TNF-α or Myostatin; test: as above; format: cell-based, human; design: key: +++: total rescue; ++: partial rescue; +: low rescue; settings: atrophy inducer IL-1β 25 ng/mL, nestorone 1 μM, corticosterone 3 μM, mifepristone 1 μM
[4] = tested on: Human primary myoblasts from DMD (Duchenne muscular dystrophy) Donor Z, myotubes; test: MyoScreen hypertrophy assay, dose response, DMD Donor Z; format: cell-based; settings: for activity: additional dose response assay, Donor Z, Mifepristone at 300 nM, IGF-1 positive control; for % Activity / EC50: first dose response assay; for % Activity / DMD myotube size and differentiation / EC50: Donor Z (DMD); for DMD myotube size and differentiation: dose response; for EC50: Homo sapiens, not defined precisely
Procedure: In addition, cells from a DMD (Duchenne muscular dystrophy) donor were sourced (Donor Z) and used to confirm primary hits.
as §2, §3, §4, §5, §6, §7, §8, §9, §10, §11
(§12) Dose response assays were performed on three donors (Healthy Donors 3 and 1, DMD Donor Z): 8 doses of candidate compounds between 33 μM and 0.015 μM, 2 well replicates per dose.
(§13) Compounds of interest were tested several times in dose response, with triplicate of wells per dose. Results were normalized to the control condition (basal level), and plotted using GraphPadm Prism. The readout “nuclei count” allowed detecting any toxicity effect. The readouts “fusion index” and “myosin area” were used to determine the EC50 value using the GrapgPad Prism fitting solution. […]

[5] = tested on: Human primary myoblasts (HSMM) from healthy Donor 1, myotubes; test: MyoScreen hypertrophy assay, dose response, healthy Donor 1; format: cell-based; settings: first dose response assay; for EC50: Homo sapiens, not defined precisely
Procedure: as §1, §2, §3, §4, §5, §6, §7, §8, §9, §10, §11, §12, §13

[6] = Donor 3, compounds at 10 μM, monoplicate, % Activity = myotube fusion index (compound)*100/fusion index (basal control), IGF-1 at 100 ng/ml, read-out: Primary screening (% Activity)
[7] = Donor 3, compounds at 10 μM, six well replicates, % of basal control fusion index, IGF-1 at 100 ng/ml, read-out: Retest (% Activity)
[8] = first dose response assay, Donor 3, 33 μM to 0.015 μM
[9] = second dose response assay, Donor 3, lower concentrations
[10] = first dose response assay, Donor 3, not defined precisely

C=C1C[C@H]2[C@@H]3C=C(C)C4=CC(=O)CC[C@]4(C)[C@H]3CC[C@]2(C)[C@@]1(OC(C)=O)C(C)=O [Melengestrol acetate]
activity at 10 µM [1, 6]: 140% | activity at 10 µM [1, 7]: 140%

CC(=O)O[C@]1(C(C)=O)CC[C@H]2[C@@H]3C=C(C)C4=CC(=O)CC[C@]4(C)[C@H]3CC[C@@]21C [Megestrol acetate]
activity at 10 µM [1, 6]: 133% | activity at 10 µM [1, 7]: 125%

IGF-1: IGF-1 at 100 ng/ml as positive hypertrophy control
atrophy rescue, TNF-alpha [2]: +++ | atrophy rescue, Myostatin [2]: +++ | atrophy rescue, IL-1 [3]: +++ | activity [4]: 200% | % Activity [4]: 250% | Primary screening (% Activity) ([1]; Donor 3, compounds at 10 μM, monoplicate, % Activity = myotube fusion index (compound)*100/fusion index (basal control), IGF-1 at 100 ng/ml): 210% | Retest (% Activity) ([1]; Donor 3, compounds at 10 μM, six well replicates, % of basal control fusion index, IGF-1 at 100 ng/ml): 190% | % Activity [1, 8]: 150% | % Activity [1, 9]: 150% | % Activity [5]: 150%

CC#C[C@]1(O)CC[C@H]2[C@@H]3CCC4=CC(=O)CCC4=C3[C@@H](c3ccc(N(C)C)cc3)C[C@@]21C [Mifepristone]
atrophy rescue, TNF-alpha [2]: ++ | atrophy rescue, Myostatin [2]: +++ | atrophy rescue, IL-1 [3]: +++ | activity [4]: 156% | EC50 [1, 10]: ~50 nM | EC50 [1, 9]: 100 nM | activity at 10 µM [1, 6]: 140% | activity at 10 µM [1, 7]: 173% | % Activity [1, 8]: 133% | % Activity [1, 9]: 135% | EC50 [5]: ~5 nM | % Activity [5]: 145%

CC(=O)[C@H]1CC[C@H]2[C@@H]3CCC4=CC(=O)CC[C@]4(C)[C@H]3CC[C@]12C [Progesterone]
activity at 10 µM [1, 6]: 137% | activity at 10 µM [1, 7]: 114%

C=C1C[C@H]2[C@@H]3CCC4=CC(=O)CC[C@@H]4[C@H]3CC[C@]2(C)[C@@]1(OC(C)=O)C(C)=O [Nestorone]
atrophy rescue, TNF-alpha [2]: + | atrophy rescue, Myostatin [2]: ++ | atrophy rescue, IL-1 [3]: ++ | DMD myotube size and differentiation [4]: significant increase | EC50 [4]: ~100 nM | % Activity [4]: 181% | EC50 [1, 10]: ~100 nM | EC50 [1, 9]: 200 nM | activity at 10 µM [1, 6]: 153% | activity at 10 µM [1, 7]: 189% | % Activity [1, 8]: 115% | % Activity [1, 9]: 133% | EC50 [5]: ~100 nM | % Activity [5]: 130%

C[C@]12C[C@H](O)[C@H]3[C@@H](CCC4=CC(=O)CC[C@@]43C)[C@@H]1CC[C@@H]2C(=O)CO [Corticosterone]
atrophy rescue, TNF-alpha [2]: ++ | atrophy rescue, Myostatin [2]: +++ | atrophy rescue, IL-1 [3]: ++ | DMD myotube size and differentiation [4]: significant increase | EC50 [4]: ~500 nM | % Activity [4]: 145% | EC50 [1, 10]: ~100 nM | EC50 [1, 9]: 200 nM | activity at 10 µM [1, 6]: 148% | activity at 10 µM [1, 7]: 128% | % Activity [1, 8]: 114% | % Activity [1, 9]: 120% | EC50 [5]: ~1000 nM | % Activity [5]: 134%
